Patent publication US20110077198A1, “COMPOSITIONS AND METHODS FOR INHIBITING THE ACTIVATION OF DSRNA-DEPENDENT PROTEIN KINASE AND TUMOR GROWTH INHIBITION” (priority 2007, published 2011)

Columns and labels:
MAC16 cells = test: Cell growth assay, MAC16 cells in vitro; format: cell-based, mouse
MAC16 tumor = conditions: cited from earlier work; for tumor growth in mice bearing the MAC16 tumor: literature reports; for loss of body weight of mice bearing MAC-16 tumor: Eley et al., Biochem J. 2007
PKR [1] = target: T1, PKR (Mus musculus, UniProt Q03963); test: Western blot of phospho and total PKR in MAC16 cells; format: cell-based
T1 construct: endogenous in cells; host or cells: MAC16 and MAC13 murine colon adenocarcinoma cells in culture
T1 sequence (Q03963 1-515): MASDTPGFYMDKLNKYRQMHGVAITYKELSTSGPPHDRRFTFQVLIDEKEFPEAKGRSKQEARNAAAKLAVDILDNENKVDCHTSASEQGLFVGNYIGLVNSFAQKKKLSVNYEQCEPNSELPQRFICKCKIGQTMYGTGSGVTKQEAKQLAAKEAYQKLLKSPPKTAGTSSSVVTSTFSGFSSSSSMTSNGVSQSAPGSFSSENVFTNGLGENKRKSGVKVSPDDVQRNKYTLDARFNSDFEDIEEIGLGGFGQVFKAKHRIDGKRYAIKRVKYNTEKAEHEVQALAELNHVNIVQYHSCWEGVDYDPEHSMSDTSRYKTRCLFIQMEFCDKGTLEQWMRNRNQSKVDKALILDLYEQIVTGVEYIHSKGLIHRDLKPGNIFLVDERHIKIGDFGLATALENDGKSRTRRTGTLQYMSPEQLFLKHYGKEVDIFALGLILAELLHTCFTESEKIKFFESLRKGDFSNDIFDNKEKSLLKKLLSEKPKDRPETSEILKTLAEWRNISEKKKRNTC
Description: (§1) Samples (approximately 10 mg) of tumor were homogenised in 500 μl of PhosphoSafe™ Extraction Reagent and centrifuged at 15,000 g for 15 min at 4° C. Portions of cytosolic protein (10 μg) were resolved on 10% sodium dodecyl sulphate/polyacrylamide gels (SDS/PAGE; 6% for eIF2α). The resolved proteins were transferred onto 0.45 μm nitrocellulose membranes, which had been blocked with 5% Marvel in Tris-buffered saline, pH 7.5, at 4° C. overnight. Membranes were then washed for 15 min in 0.5% Tween-buffered saline, or TBS-Tween, prior to the addition of primary antibodies. The primary antibodies were used at a dilution of 1:1000, except for phospho eIF2α, which was used at 1:500. The primary antibodies were washed off the membranes for 15 min, with buffer changes every 5 min, using 0.1% TBS-Tween. The secondary antibodies were used at a dilution of 1:1000, and were washed off after 45 min. Development was by ECL, and films were developed for 3-6 min. Blots were scanned by a densitometer to quantify differences.

eIF2α = test: Western blot of phospho and total eIF2α in MAC16 tumor from treated mice; format: in vivo, mouse; conditions: mice bearing MAC16 tumor
Text: (§2) Both the MAC16 and MAC13 tumors were passaged in vivo in NMRI mice by transplanting fragments subcutaneously (s.c.) into the flank, as described in Bibby et al., J. Natl. Cancer Inst., 78(3):539-546, 1987. To maintain cachexia, the MAC16 tumor for passage was selected from donor animals with established weight loss, and treatment was initiated when the average weight loss was 5%. Animals were randomized into groups of six to receive solvent (DMSO (dimethylsulfoxide): PBS (phosphate-buffered saline); 1:20) or the PKR inhibitor at 1 and 5 mg/kg administered daily by s.c. injection. Animals were terminated by cervical dislocation when the body weight loss reached 20%. All animal experiments followed a strict protocol approved by the British Home Office, and the ethical guidelines that were followed meet the standards required by the UKCCR guidelines (Workman, P. et al., Br. J. Cancer, 77:1-10, 1998).
(§3) Samples (approximately 10 mg) of tumor were homogenised in 500 μl of PhosphoSafe™ Extraction Reagent and centrifuged at 15,000 g for 15 min at 4° C. Portions of cytosolic protein (10 μg) were resolved on 10% sodium dodecyl sulphate/polyacrylamide gels (SDS/PAGE; 6% for eIF2α). […] Blots were scanned by a densitometer to quantify differences.

PKR [2] = target: T1, PKR; test: Western blot of phospho and total PKR in MAC16 tumor from treated mice; format: in vivo; conditions: mice bearing MAC16 tumor
Text: as §2, §3

MAC13 cells = test: Cell growth assay, MAC13 cells in vitro; format: cell-based, mouse; conditions: concentration up to 1000 nM (FIG. 2)
Description: The MAC16 and MAC13 tumors were propagated in vitro in RPMI 1640 medium containing 10% FCS at 37° C., under an atmosphere of 5% CO2 in air. For cell growth assays, cells were seeded at either 0.5×10^5 cells per well (MAC13) or 1×10^5 cells per well (MAC16) in 24 well multi-well dishes and allowed to accumulate for 24 h prior to drug addition. Cell number was determined three days later, whilst the cells were in exponential growth.

[3] = Toxicity in mice treated with the PKR inhibitor; format: in vivo, mouse; conditions: inhibition of autophosphorylation of PKR in mice
Text: as §2

20S proteasome = test: Western blot of 20S proteasome α-subunits in MAC16 cells; format: cell-based, mouse; conditions: MAC16 cells (FIG. 5C)
Description: as §1

NF-κB = test: EMSA of nuclear NF-κB in MAC16 tumor from treated mice; format: in vivo, mouse; conditions: mice bearing MAC16 tumor, 5 mg/kg for 4 days (FIG. 7B)
Text: as §2
DNA-binding proteins were isolated from tumor samples by hypotonic lysis, followed by high salt extraction of nuclei according to the method of Andrews and Faller (Nucleic Acids Res., 19(9):2499, 1991). EMSA was carried out using a Panomics EMSA “gel shift” kit, according to the manufacturer's instructions

PKR [4] = target: T1, PKR; test: Western blot of phospho and total PKR in MAC13 cells; format: cell-based
Description: as §1

[5] = test system: human pancreatic cancer cells; conditions: in vitro, literature reports; cited from earlier work

Compound: O=c1[nH]cc(F)c(=O)[nH]1 [5FU, 5-fluorouracil]
- growth of MAC16 cells, agent alone (MAC16 cells; 5FU alone at concentrations between 1 and 10 μM (FIG. 8)): significant inhibition

Compound: O=C1Nc2ccc3ncsc3c2/C1=C/c1c[nH]cn1 [PKR inhibitor, 8-[1-(1H-imidazol-4-yl)meth-(Z)-ylidene]-6,8-dihydro-thiazol[5,4-e]indol-7-one]
- concentration of maximum inhibition of cell growth (MAC16 cells; MAC16 in vitro, cell number after three days, higher concentrations less effective (FIG. 2)): 200 nM
- effect on 5FU-induced inhibition of growth of MAC16 cells (MAC16 cells; PKR inhibitor at 100 or 200 nM combined with 5FU 1-10 μM (FIG. 8)): significantly potentiated
- effect on gemcitabine-induced inhibition of growth of MAC16 cells (MAC16 cells; PKR inhibitor at 100 or 200 nM combined with gemcitabine (FIG. 8)): potentiated
- muscle atrophy in mice bearing the MAC16 tumor (MAC16 tumor; Eley et al, 2007): attenuated
- tumor growth in mice bearing the MAC16 tumor (MAC16 tumor): inhibited
- effect on total PKR in the cell (PKR [1]; MAC16 cells): In neither cell line was there an effect
- concentration maximally effective in inhibiting PKR (PKR [1]; increasing concentrations have a reduced inhibitory effect): 200 nM
- total level of eIF2α in MAC16 tumor (eIF2α; 1 or 5 mg/kg daily s.c.): without an effect
- increased phosphorylation of eIF2α in MAC16 tumor (eIF2α; 1 or 5 mg/kg daily s.c. (FIG. 4B)): complete attenuation
- total level of PKR in MAC16 tumor (PKR [2]; 1 or 5 mg/kg daily s.c.): without an effect
- increased phosphorylation of PKR in MAC16 tumor (PKR [2]; 1 or 5 mg/kg daily s.c. (FIG. 4A)): complete attenuation
- effect on growth of the MAC13 tumor in vitro (MAC13 cells): no effect
- toxicity in mice [3]: did not produce toxicity
- expression of the 20S proteasome (20S proteasome): attenuated
- constitutive activation of NF-κB in the tumor (NF-κB): attenuated
- effect on total PKR in the cell (PKR [4]): In neither cell line was there an effect
- effect on autophosphorylation of PKR (PKR [4]; low levels of autophosphorylation (FIG. 5B)): no effect

Compound: CC(C)C[C@H](NC(=O)[C@H](Cc1ccccc1)NC(=O)c1cnccn1)B(O)O [PS-341]
- growth / proliferation of human pancreatic cancer cells [5]: block proliferation

Compound: COc1cc(/C=C/C(=O)CC(=O)/C=C/c2ccc(O)c(OC)c2)ccc1O [curcumin]
- growth / proliferation of human pancreatic cancer cells [5]: inhibits

Compound: Nc1ccn([C@@H]2O[C@H](CO)[C@@H](O)C2(F)F)c(=O)n1 [gemcitabine, Gemcitabine]
- growth of MAC16 cells, agent alone (MAC16 cells; gemcitabine alone, 3.8-38 μM (FIG. 8)): inhibition of growth

Compound: CC(C)C[C@H](N)C(=O)O [leucine]
- loss of body weight of mice bearing MAC-16 tumor (MAC16 tumor): significantly suppress

Compound: Oc1ccc(C=Cc2cc(O)cc(O)c2)cc1 [resveratrol]
- tumor growth in mice bearing the MAC16 tumor (MAC16 tumor): inhibited

Compound: CC(C)[C@H](N)C(=O)O [valine]
- loss of body weight of mice bearing MAC-16 tumor (MAC16 tumor): significantly suppress
